# Laboratory results published in article PMC12340957, “Interactions between Lipopolysaccharide and Peptide Bacteriocin BacSp222 Influence Their Biological Activities” (ACS Infectious Diseases, 2025).
# Ends that are not written are not given here. * marks the point of attachment. For = O=C*
# Legend:
# [1] = test system: mouse immune cells; conditions: in the presence of IFN-gamma; ref number not given; cited from earlier work
# Source text: (§1) A good example of such a multifunctional and immunomodulatory bacteriocin is the peptide BacSp222, produced by an opportunistic canine pathogen, strain 222. BacSp222 is a 50 amino acid long linear peptide encoded on a plasmid and is produced without a leader sequence, retaining a formylated N-terminal methionine. Its amino acid sequence seems to be unique, but the general physicochemical properties of BacSp222 resemble features of a group of several previously described bacteriocins of, predominantly, different staphylococci: lacticins Q and Z, aureocins A53 and AurK411, capidermicin, and epid ...
# [2] = test system: pro-inflammatory cytokines; conditions: TNF, MCP-1, IL-1-alpha, IL-8; via TLR2/TLR6, MyD88, NF-κB; ref our recent studies; cited from earlier work
# Source text: as §1
# [3] = test system: Gram-positive bacteria; conditions: pore formation; ref number not given; cited from earlier work
# Source text: as §1
# [4] = test system: human neutrophils; set-up: method as in number not given; conditions: ref number not given; cited from earlier work
# [5] = target: T1, TLR4 receptor (Homo sapiens, UniProt O00206+Q9Y6Y9); assay: HEK-Blue hTLR4 stimulation, SEAP reporter; type: cell-based; conditions: HEK-Blue hTLR4, BacSp222 0.016 to 2 μM without LPS, 17 h
# T1 construct: host or cells: HEK-Blue hTLR4 (HEK293 reporter cells)
# T1 sequence (O00206 24-839): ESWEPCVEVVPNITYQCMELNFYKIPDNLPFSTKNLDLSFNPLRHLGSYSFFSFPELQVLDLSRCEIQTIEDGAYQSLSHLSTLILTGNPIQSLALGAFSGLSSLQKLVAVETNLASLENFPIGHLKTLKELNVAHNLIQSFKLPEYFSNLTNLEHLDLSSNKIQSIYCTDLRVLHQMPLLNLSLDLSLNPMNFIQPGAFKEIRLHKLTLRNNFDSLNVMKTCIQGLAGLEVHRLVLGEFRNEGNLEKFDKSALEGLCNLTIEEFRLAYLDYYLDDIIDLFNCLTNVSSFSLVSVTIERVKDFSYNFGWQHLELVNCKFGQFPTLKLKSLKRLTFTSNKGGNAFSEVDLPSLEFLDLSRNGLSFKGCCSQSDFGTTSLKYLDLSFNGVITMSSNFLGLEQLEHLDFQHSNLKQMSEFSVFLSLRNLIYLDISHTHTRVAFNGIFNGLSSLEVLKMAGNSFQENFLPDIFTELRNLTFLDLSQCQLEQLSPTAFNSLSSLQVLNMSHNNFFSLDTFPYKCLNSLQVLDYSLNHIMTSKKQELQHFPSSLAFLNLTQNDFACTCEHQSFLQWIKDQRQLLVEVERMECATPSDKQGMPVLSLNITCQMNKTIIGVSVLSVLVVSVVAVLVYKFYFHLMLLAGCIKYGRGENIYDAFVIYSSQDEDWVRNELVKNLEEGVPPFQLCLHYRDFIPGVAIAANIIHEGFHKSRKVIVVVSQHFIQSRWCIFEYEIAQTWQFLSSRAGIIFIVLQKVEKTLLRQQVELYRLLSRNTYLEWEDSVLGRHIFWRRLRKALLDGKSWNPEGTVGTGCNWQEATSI
# T1 sequence (Q9Y6Y9 17-160 limits assumed): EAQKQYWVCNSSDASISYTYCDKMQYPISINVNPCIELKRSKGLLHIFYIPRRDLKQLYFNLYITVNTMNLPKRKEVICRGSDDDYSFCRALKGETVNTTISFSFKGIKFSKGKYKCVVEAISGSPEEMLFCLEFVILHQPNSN
# Experimental: The eukaryotic cells were cultured according to the methods described in previous publications. , The murine monocyte/macrophage RAW 264.7 cell line (ATCC TIB-71) and the murine monocyte/macrophage P388.D1 cell line (ATCC CCL-46) were purchased from the American Type Culture Collection (ATCC, Manassas, VA, USA). Human TLR4/NF-κB/SEAP (HEK-Blue hTLR4) and human TLR2 + TLR6/NF-κB/SEAP (HEK-Blue hTLR2/TLR6) reporter HEK293 cells were obtained from InvivoGen (San Diego, CA, USA). The passages of all TLR reporter HEK293 cells ranged from 7 to 15. All cells used in experiments were cultured under the following conditions: 5% CO2, 37 °C, and >95% humidity. RAW 264.7 and P388.D1 cells were cultured in Dulbecco’s modified Eagle’s medium (DMEM) containing 4.5 g/L glucose (GIBCO, Paisley, UK) and 5% (v/v) fetal bovine serum (FBS, GIBCO, Paisley, UK), whereas HEK-Blue hTLR4 and HEK-Blue hTLR2/TLR6 were cultured in DMEM containing 4.5 g/L glucose, 10% (v/v) FBS, 50 units/mL penicillin, and 50 μg/mL streptomycin (both from GIBCO, Paisley, UK). […]
# Measurement of the activity of SEAP, secreted by the HEK-Blue cells to the media, was conducted as described previously. […] Then, the plate was incubated at 37 °C for 1 h in the dark, and the absorbance was measured at 620 nm using a Synergy H1 Hybrid microplate reader controlled by Gene5 version 2.00.18 software (BIOTEK Instruments, Winooski, VT, USA). […]
# [6] = test system: FPR2; set-up: method as in number not given; conditions: ref number not given; cited from earlier work
# [7] = test system: TLR2/TLR6 heterodimer; conditions: cited from earlier work
# Source text: A good example of such a multifunctional and immunomodulatory bacteriocin is the peptide BacSp222, produced by an opportunistic canine pathogen, strain 222. BacSp222 is a 50 amino acid long linear peptide encoded on a plasmid and is produced without a leader sequence, retaining a formylated N-terminal methionine.
substance,measurement,setting,value
For-MAGLLRFLLSKGRALYNWAKSHVGKVWEWLKSGATYEQIKEWIENALGWR [BacSp222],induction of NO secretion,[1],"capable of stimulating mouse immune cells to express an inducible nitric oxide synthase and, consequently, to secrete nitric oxide (NO)"
same,induction of pro-inflammatory cytokines,[2],induces the synthesis of many pro-inflammatory cytokines
same,"bactericidal activity, Gram-positive bacteria",[3],kills a wide range of Gram-positive bacteria
same,"activation of human neutrophils (ROS, NETs)",[4],cannot activate human neutrophils to produce reactive oxygen species (ROS) and induce the production of extracellular neutrophil traps (NETs)
same,stimulation of TLR4 by BacSp222 alone,[5],none of the tested BacSp222 concentrations stimulated the TLR4 receptors
same,activation of FPR2,[6],cannot activate
same,affinity for TLR2/TLR6 heterodimer vs synthetic ligands,"[7]; kinetic studies, vs ligands based on lipoteichoic acids or lipopeptides, ref number not given",lower affinity for the TLR2/TLR6 heterodimer than synthetic ligands
same,recognition by TLR2/TLR6,[7]; ref our recent studies (ref 15),recognized by the TLR2/TLR6 receptor heterodimer
